The record followed here is patent US8916565B2, “Pyrrolopyrazine-spirocyclic piperidine amides as modulators of ion channels” (priority 2011, dated 2014).

Bounds are passed on as bounds.

Chain of human NaV subtype, like NaV 1.7 (Q15858 whole entry): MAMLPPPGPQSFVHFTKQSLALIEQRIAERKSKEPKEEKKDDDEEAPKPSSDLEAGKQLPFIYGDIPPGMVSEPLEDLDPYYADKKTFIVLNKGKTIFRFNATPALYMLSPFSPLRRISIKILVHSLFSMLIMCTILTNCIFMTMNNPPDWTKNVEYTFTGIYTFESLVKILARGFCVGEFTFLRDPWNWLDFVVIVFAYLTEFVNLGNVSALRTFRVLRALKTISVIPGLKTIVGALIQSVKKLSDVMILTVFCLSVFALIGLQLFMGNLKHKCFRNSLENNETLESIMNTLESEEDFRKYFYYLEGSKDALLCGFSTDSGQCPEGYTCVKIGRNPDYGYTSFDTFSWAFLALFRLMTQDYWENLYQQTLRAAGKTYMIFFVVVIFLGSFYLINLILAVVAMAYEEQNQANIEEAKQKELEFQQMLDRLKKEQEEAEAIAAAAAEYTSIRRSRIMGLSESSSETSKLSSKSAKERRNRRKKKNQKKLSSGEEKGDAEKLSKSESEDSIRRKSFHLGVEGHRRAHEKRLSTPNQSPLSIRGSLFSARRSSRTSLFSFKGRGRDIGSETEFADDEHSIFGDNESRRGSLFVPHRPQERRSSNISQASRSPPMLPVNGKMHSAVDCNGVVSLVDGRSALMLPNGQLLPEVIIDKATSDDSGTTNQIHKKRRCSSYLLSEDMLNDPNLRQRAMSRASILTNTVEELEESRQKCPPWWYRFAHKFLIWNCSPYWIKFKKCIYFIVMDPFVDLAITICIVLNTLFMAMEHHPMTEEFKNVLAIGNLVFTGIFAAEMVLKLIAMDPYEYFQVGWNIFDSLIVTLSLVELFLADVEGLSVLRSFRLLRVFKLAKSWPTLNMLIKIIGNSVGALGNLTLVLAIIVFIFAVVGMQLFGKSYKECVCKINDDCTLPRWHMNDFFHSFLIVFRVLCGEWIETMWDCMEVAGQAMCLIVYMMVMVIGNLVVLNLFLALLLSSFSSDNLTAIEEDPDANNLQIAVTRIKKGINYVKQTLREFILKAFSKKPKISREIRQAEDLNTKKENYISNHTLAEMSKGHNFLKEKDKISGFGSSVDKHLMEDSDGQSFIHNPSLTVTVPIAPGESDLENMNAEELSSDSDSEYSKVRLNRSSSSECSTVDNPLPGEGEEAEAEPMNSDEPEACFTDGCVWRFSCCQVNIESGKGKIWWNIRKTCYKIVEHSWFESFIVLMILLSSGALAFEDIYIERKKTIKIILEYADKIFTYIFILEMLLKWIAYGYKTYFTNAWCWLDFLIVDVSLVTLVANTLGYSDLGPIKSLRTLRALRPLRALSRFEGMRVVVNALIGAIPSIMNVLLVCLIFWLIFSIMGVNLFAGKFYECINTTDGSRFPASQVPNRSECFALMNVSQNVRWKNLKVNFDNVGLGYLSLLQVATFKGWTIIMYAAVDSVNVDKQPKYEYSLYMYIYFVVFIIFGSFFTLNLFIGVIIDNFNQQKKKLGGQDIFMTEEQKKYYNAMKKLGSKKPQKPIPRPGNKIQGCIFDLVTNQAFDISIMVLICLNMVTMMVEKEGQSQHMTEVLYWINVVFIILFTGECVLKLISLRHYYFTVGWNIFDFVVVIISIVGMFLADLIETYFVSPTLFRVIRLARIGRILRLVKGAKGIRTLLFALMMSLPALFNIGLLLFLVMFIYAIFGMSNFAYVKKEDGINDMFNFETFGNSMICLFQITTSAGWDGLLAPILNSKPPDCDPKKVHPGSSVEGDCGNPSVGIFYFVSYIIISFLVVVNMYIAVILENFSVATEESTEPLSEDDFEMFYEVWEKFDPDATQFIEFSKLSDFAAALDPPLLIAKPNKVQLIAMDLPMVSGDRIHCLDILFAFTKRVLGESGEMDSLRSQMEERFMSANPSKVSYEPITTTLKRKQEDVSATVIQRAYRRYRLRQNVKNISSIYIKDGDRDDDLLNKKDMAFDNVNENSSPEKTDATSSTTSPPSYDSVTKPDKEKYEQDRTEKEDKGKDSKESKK

The assay has as its target human NaV subtype, like NaV 1.7 (Homo sapiens, UniProt Q15858). Kind of assay: E-VIPR optical membrane potential assay with electrical stimulation. It is filed as cell-based. The conditions noted are these: active against one or more sodium channels; Table 3 does not name the assay or NaV subtype; read-out: Binned Activity Data (IC50).
Take `CN1CCn2c(C(F)(F)F)ccc2C12CCN(C(=O)c1ccnc3ccccc13)CC2` [Compound 49]: the IC50 was at most 2 µM.

As to `CNC(=O)N1CCn2c(C(F)(F)F)ccc2C12CCN(C(=O)c1ccc(OC(C)C)cc1F)CC2` [Compound 474], the half-maximal inhibitory concentration (IC50) fell in the range of 2 to 5 µM.

On to `CCC(CC)(CC)c1ccc(C(=O)N2CCC3(CC2)c2ccc(C(C)=O)n2CCN3C)cc1` [Compound 511], for which the IC50 is over 5 µM.

Take `CC(=O)c1ccc2n1CCN(C)C21CCN(C(=O)c2ccc(C3CC3)cc2)CC1` [Compound 425]: the IC50 is over 5 µM.

As to `CC(C)Oc1ccc(C(=O)N2CCC3(CC2)c2ccc(C(=O)C(C)(C)C)n2CCN3C)c(F)c1` [Compound 91], the IC50 is at most 2 µM.

For the compound `CCOc1ccc(C(=O)N2CCC3(CC2)c2ccc(C(=O)C(F)(F)F)n2CCN3C)cc1F` [Compound 446], the IC50 is 2 to 5 µM.

Take `CN1CCn2c(C(=O)C(F)(F)F)ccc2C12CCN(C(=O)c1ccc(OCC3CC3)cc1)CC2` [Compound 47]: the half-inhibitory concentration (IC50) is at most 2 µM.

For `CC(C)Oc1ccc(C(=O)N2CCC3(CC2)c2ccc(C(F)(F)F)n2CCN3C)cc1CO` [Compound 709], the 50% inhibitory concentration (IC50) is at most 2 µM.

As for `CC(C)Oc1ccc(C(=O)N2CCC3(CC2)c2ccc(C(=O)C4(C)CC4)n2CCN3C)c(F)c1` [Compound 445], the concentration for half-maximal inhibition (IC50) is at most 2 µM.

Consider `Cc1cc(C(=O)N2CCC3(CC2)c2ccc(C(=O)C4CC4)n2CCN3C)ccc1OC(C)C` [Compound 70], for which the IC50 was at most 2 µM.

Take `CN1CCn2c(C(=O)C(F)(F)F)ccc2C12CCN(C(=O)c1ccc(C(C)(C)C)cc1)CC2` [Compound 12]: the 50% inhibitory concentration (IC50) is at most 2 µM.

Turning to `C[C@H]1Cn2c(C(=O)C(F)(F)F)ccc2C2(CCN(C(=O)c3ccc(S(=O)(=O)C(C)(C)C)cc3)CC2)N1C` [Compound 300], the concentration for half-maximal inhibition (IC50) is at most 2 µM.

For the compound `CN1CCn2c(Cl)ccc2C12CCN(C(=O)c1ccc(C3CC3)cc1)CC2` [Compound 400], the half-inhibitory concentration (IC50) is over 5 µM.

Regarding `CC(=O)c1ccc2n1CCN(C)C21CCN(C(=O)c2ccc(C3(O)CCCC3)cc2)CC1` [Compound 309], the half-inhibitory concentration (IC50) is over 5 µM.

In the case of `Cc1nc(C(=O)N2CCC3(CC2)c2ccc(C(=O)C(F)(F)F)n2CCN3C)ccc1OC(C)C` [Compound 468], the half-inhibitory concentration (IC50) was at most 2 µM.

For `CN1CCn2c(C(=O)C(F)(F)F)ccc2C12CCN(C(=O)c1ccc(C3CCCCC3)cn1)CC2` [Compound 638], the IC50 is at most 2 µM.

On to `O=C(c1ccc(S(=O)(=O)NC2CC2)cc1)N1CCC2(CC1)c1ccc(C(F)(F)F)n1CCN2C1CCC1` [Compound 145], for which the IC50 was over 5 µM.

For the compound `COc1cc(C(=O)N2CCC3(CC2)c2ccc(C(=O)C(F)(F)F)n2CCN3C)ccc1OCCOC(F)(F)F` [Compound 360], the concentration for half-maximal inhibition (IC50) was at most 2 µM.

Take `COc1ccc(C(=O)N2CCC3(CC2)c2ccc(C(=O)c4ccccc4)n2CCN3C)cc1C(F)(F)F` [Compound 180]: the IC50 is at most 2 µM.

With `COc1cc(C(=O)N2CC[C@@]3(c4ccc(C(F)(F)F)n4CCN3C)[C@H](F)C2)ccc1OC(C)C` [Compound 327], the concentration for half-maximal inhibition (IC50) was at most 2 µM.

As to `CN1CCn2c(C(=O)C(F)(F)F)ccc2C12CCN(C(=O)c1ccc(CC(C)(C)O)cc1)CC2` [Compound 688], the half-maximal inhibitory concentration (IC50) is at most 2 µM.

With `CCC(C)(C)c1ccc(C(=O)N2CCC3(CC2)c2ccc(C(C)=O)n2CCN3C)cc1` [Compound 67], the IC50 was over 5 µM.

With `CN1CCn2c(C(F)(F)F)ccc2C12CCN(C(=O)c1ccc(C(C)(C)O)c(F)c1)CC2` [Compound 370], the IC50 was at most 2 µM.

For `CCOC(=O)N1CCn2c(C#N)ccc2C12CCN(C(=O)c1ccc(OC(C)C)c(C)n1)CC2` [Compound 729], the half-maximal inhibitory concentration (IC50) was at most 2 µM.

On to `CN1CCn2c(C(F)(F)F)ccc2C12CCN(C(=O)c1ccc(Oc3ccccc3)cc1)CC2` [Compound 155], for which the IC50 is over 5 µM.

Turning to `COc1cc(C(=O)N2CC[C@]3(c4ccc(C(F)(F)F)n4CCN3C)[C@H](F)C2)ccc1OC(C)C` [Compound 3], the half-maximal inhibitory concentration (IC50) is over 5 µM.

On to `Cc1cc(C(=O)N2CCC3(CC2)c2ccc(C(F)(F)F)n2CCN3C)ccc1S(=O)(=O)N(C)C` [Compound 347], for which the IC50 is at most 2 µM.

Take `COCCN1CCn2c(C(F)(F)F)ccc2C12CCN(C(=O)c1ccc(OC(C)C)c(CO)c1)CC2` [Compound 336]: the IC50 is at most 2 µM.

For `CN1CCn2c(C(=O)C3(C)CC3)ccc2C12CCN(C(=O)c1ccc(O)c(C(F)(F)F)c1)CC2` [Compound 685], the half-inhibitory concentration (IC50) is at most 2 µM.

On to `CC(=O)c1ccc2n1CCN(C)C21CCN(C(=O)c2ccc(OCC3CC3)c(F)c2)CC1` [Compound 329], for which the half-inhibitory concentration (IC50) lay in the range of 2 to 5 µM.

Consider `CC(C)CCOc1ccc(C(=O)N2CCC3(CC2)c2ccc(Cl)n2CCN3C)cc1` [Compound 530], for which the 50% inhibitory concentration (IC50) is at most 2 µM.

`Cc1cc(C(=O)N2CCC3(CC2)c2ccc(C(=O)C(F)(F)F)n2CCN3C)ccc1OC(C)C` [Compound 117]: the concentration for half-maximal inhibition (IC50) was at most 2 µM.

`CCOC(=O)N1CCn2c(C#N)ccc2C12CCN(C(=O)c1ccc(OC(C)C)c(C)c1)CC2` [Compound 210]: the IC50 was in the range of 2 to 5 µM.

`COCCN1CCn2c(C(F)(F)F)ccc2C12CCN(C(=O)c1ccc(OC(C)C)c(OC)c1)CC2` [Compound 186]: the IC50 was at most 2 µM.

As for `CC(C)Oc1ccc(C(=O)N2CCC3(CC2)N[C@@H](C)Cn2c(C(F)(F)F)ccc23)cc1F` [Compound 108], the IC50 lay within 2 to 5 µM.

For `COc1cc(C(=O)N2CCC3(CC2)N[C@@H](C)Cn2c(C(F)(F)F)ccc23)ccc1OC(C)C` [Compound 306], the IC50 is 2 to 5 µM.

As for `CC1(C)Cn2c(C(=O)C(F)(F)F)ccc2C2(CCN(C(=O)c3ccc(S(=O)(=O)C(F)(F)F)cc3)CC2)N1` [Compound 396], the 50% inhibitory concentration (IC50) is at most 2 µM.

Consider `CN1CCn2c(C(F)(F)F)ccc2C12CCN(C(=O)c1cc3occc3n1C)CC2` [Compound 365], for which the IC50 is at most 2 µM.

Consider `CC(C)CCOc1ccc(C(=O)N2CCC3(CC2)NCC(C)n2c(C(=O)C(F)(F)F)ccc23)cc1` (stereo not drawn) [Compound 284], for which the 50% inhibitory concentration (IC50) was at most 2 µM.

Turning to `C[C@H]1Cn2c(C(=O)C(F)(F)F)ccc2C2(CCN(C(=O)c3ccc(C(C)(C)O)cc3)CC2)N1C` [Compound 349], the IC50 was at most 2 µM.

For `COc1cc(C(=O)N2CCC3(CC2)c2ccc(C(=O)C(C)(C)C)n2CCN3C)ccc1OC(C)C` [Compound 137], the IC50 is at most 2 µM.

Regarding `CCCCOc1cc(C(=O)N2CCC3(CC2)NCCn2c(C(F)(F)F)ccc23)ccc1OC` [Compound 241], the half-inhibitory concentration (IC50) is over 5 µM.

Regarding `CC(C)Oc1ccc(C(=O)N2CCC3(CC2)N[C@H](C)Cn2c(C(F)(F)F)ccc23)cc1F` [Compound 57], the IC50 is at most 2 µM.

In the case of `CC(=O)c1ccc2n1CCN(C)C21CCN(C(=O)c2ccc(C(C)C)cc2)CC1` [Compound 519], the half-maximal inhibitory concentration (IC50) was over 5 µM.

For the compound `CCOc1ccc(C(=O)N2CCC3(CC2)c2c(Cl)cc(C(F)(F)F)n2CCN3C)cc1C` [Compound 420], the IC50 was at most 2 µM.

Regarding `CC(C)COc1ccc(C(=O)N2CCC3(CC2)c2ccc(C(=O)C(F)(F)F)n2CCN3C)cc1` [Compound 501], the half-maximal inhibitory concentration (IC50) was at most 2 µM.

Consider `CCCCOc1ccc(C(=O)N2CCC3(CC2)c2ccc(C(=O)C(F)(F)F)n2CCN3C)cc1OC` [Compound 146], for which the 50% inhibitory concentration (IC50) was at most 2 µM.

In the case of `CN1CCn2c(ccc2C(F)(F)C(F)(F)F)C12CCN(C(=O)c1ccc(C(C)(C)O)c(F)c1)CC2` [Compound 253], the IC50 was at most 2 µM.
